Reference: publication PMC2933614, “Quantitative in vitro and in vivo pharmacological profile of CE-178253, a potent and selective cannabinoid type 1 (CB1) Receptor Antagonist” (BMC Pharmacology, 2010)
Values joined by “and” are separate entries in the source; they are usually repeats but may differ in a detail not shown here. Identical values can stand only once.

Assays:
[1] = biological target: T1, human CB1 in CHO cells (Homo sapiens, UniProt P21554); test: GTPγ[35S] inverse agonist assay; assay type: biochemical
T1 construct: expressed in transfected cells
T1 sequence (P21554 whole entry): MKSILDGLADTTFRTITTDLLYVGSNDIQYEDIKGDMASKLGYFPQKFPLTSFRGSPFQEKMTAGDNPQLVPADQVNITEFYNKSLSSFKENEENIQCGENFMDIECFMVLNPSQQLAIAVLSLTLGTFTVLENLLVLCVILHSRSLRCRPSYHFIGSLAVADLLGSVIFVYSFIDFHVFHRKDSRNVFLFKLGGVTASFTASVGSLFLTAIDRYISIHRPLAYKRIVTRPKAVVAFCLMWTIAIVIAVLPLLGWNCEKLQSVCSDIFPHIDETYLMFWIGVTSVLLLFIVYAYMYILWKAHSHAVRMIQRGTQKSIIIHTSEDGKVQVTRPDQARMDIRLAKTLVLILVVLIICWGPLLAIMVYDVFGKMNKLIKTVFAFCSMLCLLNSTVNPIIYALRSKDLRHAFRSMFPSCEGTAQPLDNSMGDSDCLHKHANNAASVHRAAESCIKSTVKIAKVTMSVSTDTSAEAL
Experimental: GTPγ[^35S] binding assays were performed as described. GTPγ[^35S] binding assays were performed in a 96-well FlashPlate™ format in duplicate using 100 pM GTPγ[^35S] and 10 μg membrane per well in assay buffer composed of 50 mM Tris HCl (pH 7.4); 3 mM MgCl2 (pH 7.4); 10 mM MgCl2, 20 mM EGTA, 100 mM NaCl, 30 μM GDP, 0.1% BSA and the following protease inhibitors: 100 μg/ml bacitracin, 100 μg/ml benzamidine, 5 μg/ml aprotinin, and 5 μg/ml leupeptin. […] Assays were performed at 30°C for 1 hr. The FlashPlates™ were then centrifuged at 2000×g for 10 min. Stimulation of GTPγ[^35S] binding was then quantified using a Wallac Microbeta® [16].

[2] = Indirect calorimetry; assay type: in vivo, rat; conditions: for Respiratory Quotient (VCO2/VO2): veh 0.85 ± 0.03; for VO2, ave, 1-3 hr (± S-D), increase in oxygen consumption: veh 3 ± 5
Experimental: Whole body oxygen consumption was measured using an indirect calorimeter (Oxymax from Columbus Instruments, Columbus, OH) in male Sprague Dawley rats. The rats (300-380 g body weight) were placed in the calorimetry chambers and the chambers were placed in activity monitors. All studies were conducted during the light cycle. Prior to the measurement of oxygen consumption, the rats were fed standard chow ad libitum. During the measurement of oxygen consumption, food was not provided to the rats. Basal, pre-dose oxygen consumption and ambulatory activity were measured every 10 min for 2.5 to 3 hr. At the end of the basal pre-dosing period, the chambers were opened and the animals were administered a single dose of compound (or veh.) by oral gavage. CE-178253 was prepared in 0.5% methylcellulose as veh. Oxygen consumption and ambulatory activity were measured every 10 min for an additional 1-6 hr after dosing. Resting oxygen consumption, during pre- and post-dosing, was calculated by averaging the 10-min O2 consumption values, excluding periods of high ambulatory activity (ambulatory activity count > 100) and excluding the first 5 values of the pre-dose period and the first value from the post-dose period. Change in oxygen consumption is reported as percent and is calculated by dividing the post-dosing resting oxygen consumption by the pre-dose oxygen consumption (X 100). VO2, VCO2, RER and locomotor activity were all measured.

[3] = Core body temperature; assay type: in vivo, mouse; conditions: C57BL/6J mice, n = 5 per group
Experimental: In a separate study, core body temperature was measured in C57BL/6J mice.

[4] = Four day chow-fed rat food intake and body weight study; assay type: in vivo; conditions: chow-fed rats
Experimental: CE-178253 was evaluated in 4-day chow-fed and DIO S-D rat studies. Male 12-16 week old S-D rats which had been maintained on regular chow were singly housed and acclimated to handling and dosing and two days of food intake were recorded to establish baseline food intake values before dosing was initiated. The animals were randomly sorted and assigned to treatment groups (n = 7-8 per group). Two studies were performed. In study 1 (age = 12 weeks) the mean starting weight of all animals was 370 ± 6 g. In study 2 (age = 16 weeks) the mean starting weight of all animals was 431 ± 11 g. Rats were dosed (2 mls/kg) with veh. or CE-178253 according to body weight. FI and BW were recorded daily.
CE-178253 was also evaluated in chow-fed rats in a 4 day FI and BW study. Rats were treated once daily with veh. (0.5% MC) or CE-178253. In the first study the same doses used in the DIO study were used to compare FI and BW efficacy. […] CE-178253 was clearly efficacious in acute food intake studies in chow-fed rats up to 12 hours (Figure 3). A comparison of 24 hr FI in chow-fed and DIO rats yielded different efficacy in response to CE-178253 treatment. The 1 mg/kg dose yielded an 8% decrease in 24 hr FI compared to veh-treated animals (p = 0.053). […] Initial and final body weights of veh-treated rats were 371 ± 7 g and 390 ± 7 g (n = 8), respectively. Initial and final body weights of 0.3 mg/kg CE-178253-treated rats were 374 ± 7 g and 388 ± 9 g, respectively. Initial and final body weights of 1 mg/kg CE-178253-treated rats were 373 ± 7 g and 390 ± 9 g, (respectively.
Based on the weak efficacy observed at the 0.3 and 1 mg/kg doses the study was repeated using higher doses of CE-178253 (Figures 7A and 7B). At 3 and 10 mg/kg (QD, p.o.) doses, statistically significant decreases in FI and BW were observed. Initial and final body weights of veh.-treated rats were 435 ± 11 g and 451 ± 12 g (n = 8), respectively, […]. Initial and final body weights of 3 mg/kg CE-178253-treated rats were 436 ± 9 g and 427 ± 9 g, respectively, a 2% decline. Initial and final body weights of 10 mg/kg CE-178253-treated rats were 435 ± 11 g and 430 ± 10 g, respectively, […]. […] Thus, as has been reported for other CB1 receptor antagonists it is likely that DIO rats are more sensitive to the anorectic and weight loss effect of CE-178253.

[5] = test system: central CB1 receptor-driven responses; set-up: method as in PMID 17630359; conditions: cited from earlier work

Inverse agonist potency weaker than binding potency [1]: 6 fold
Inverse agonist potency weaker than functional potency [1]: 29 fold
IC50 ([1]; decrease in basal GTPγ[35S] binding): 2 ± 0.56 nM
Emax ([1]; percent decrease in basal GTPγ[35S] binding, read-out: Intrinsic Activity): 21%
Compound: CCNC1(C(N)=O)CN(c2nc(C)nc3c(-c4ccc(Cl)cc4)c(-c4ccccc4Cl)nn23)C1 [CE-178253]
Respiratory Quotient (VCO2/VO2) ([2]; 1 mg/kg p.o.): 0.74 ± 0.02
VO2, ave, 1-3 hr (± S-D), increase in oxygen consumption ([2]; 1 mg/kg p.o.): 28% and 28 ± 7 %
Respiratory Quotient (VCO2/VO2) ([2]; 3 mg/kg p.o.): 0.75 ± 0.03
VO2, ave, 1-3 hr (± S-D), increase in oxygen consumption ([2]; 3 mg/kg p.o.): 39% and 39 ± 5 %
Respiratory quotient after dosing ([2]; declined from 0.85 over the first hr, dose not stated): 0.75
Acute stimulation of energy expenditure ([2]; rats, dose not stated): greater than 30%
Increase in core body temperature compared to veh ([3]; 1 mg/kg): 0.7 ± 0.3 °C
Increase in core body temperature compared to veh ([3]; 3 mg/kg): 1.2 ± 0.3 °C
Final body weight ([4]; 0.3 mg/kg, 4 day, initial 374 ± 7 g): 388 ± 9 g
Final body weight ([4]; 1 mg/kg, 4 day, initial 373 ± 7 g): 390 ± 9 g
Decrease in 24 hr FI compared to veh-treated animals ([4]; 1 mg/kg, p = 0.053): 8%
Decline in body weight, initial to final ([4]; 3 mg/kg QD p.o., 4 day): 2%
Final body weight ([4]; 3 mg/kg QD p.o., 4 day, initial 436 ± 9 g): 427 ± 9 g
Increase in body weight, initial to final ([4]; 10 mg/kg QD p.o., 4 day): 1%
Final body weight ([4]; 10 mg/kg QD p.o., 4 day, initial 435 ± 11 g): 430 ± 10 g
BW changes vs veh ([4]; 0.3 and 1 mg/kg dosing groups, 4 day): No statistically significant differences
Effect on CP-55940 responses in all four components of the tetrad [5]: dose-dependently reversed
